In ChEMBL document CHEMBL1201862, “PubChem BioAssay data set” (2004):
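Test compounds were applied to cells in 96-well plates for 48 hours at 5 doses. GI50 is the concentration that inhibits growth by half.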 Calls of active or inactive are those of the source. No stated cut-off is given here; in the data, active = GI50 up to about 1.1 µM and inactive = higher.

What was measured:
Assay in all cases: NCI-60 cell line screen, 48 h
CCRF-CEM = system: CCRF-CEM
K562 = system: K562
RXF 393 = system: RXF 393
OVCAR-8 = system: OVCAR-8
SK-MEL-5 = system: SK-MEL-5
SF-295 = system: SF-295
TK-10 = system: TK-10
786-0 = system: 786-0
SNB-75 = system: SNB-75
A549 = system: A549
SK-MEL-28 = system: SK-MEL-28
T47D = system: T47D
NCI-H522 = system: NCI-H522
SN12C = system: SN12C
PC-3 = system: PC-3
MDA-MB-435 = system: MDA-MB-435
M14 = system: M14
U-251 = system: U-251
DU-145 = system: DU-145
OVCAR-3 = system: OVCAR-3
HL-60 = system: HL-60
SF-539 = system: SF-539
MCF7 = system: MCF7
OVCAR-5 = system: OVCAR-5
SNB-19 = system: SNB-19
UACC-257 = system: UACC-257
SF-268 = system: SF-268
SK-MEL-2 = system: SK-MEL-2
HT-29 = system: HT-29
IGROV-1 = system: IGROV-1
HCC 2998 = system: HCC 2998
A498 = system: A498
MDA-MB-231 = system: MDA-MB-231
SR = system: SR
LOX IMVI = system: LOX IMVI
EKVX = system: EKVX
NCI-H23 = system: NCI-H23
HOP-62 = system: HOP-62
NCI-H226 = system: NCI-H226
MDA-N = system: MDA-N
UACC-62 = system: UACC-62
CAKI-1 = system: CAKI-1
SW-620 = system: SW-620
COLO 205 = system: COLO 205
NCI/ADR-RES = system: NCI/ADR-RES
OVCAR-4 = system: OVCAR-4
KM12 = system: KM12
Hs-578T = system: Hs-578T
HCT-15 = system: HCT-15
RPMI-8226 = system: RPMI-8226
MOLT-4 = system: MOLT-4
NCI-H460 = system: NCI-H460
ACHN = system: ACHN
SK-OV-3 = system: SK-OV-3
BT-549 = system: BT-549
HCT-116 = system: HCT-116
Malme-3M = system: Malme-3M

## CCOc1c(OC)cc(-c2nc3n(n2)C(=O)C(CC)S3)cc1OC (configuration not stated)
CCRF-CEM
  GI50: > 10 µM (inactive)
K562
  GI50: > 10 µM (inactive)
RXF 393
  GI50: > 10 µM (inactive)
OVCAR-8
  GI50: > 10 µM (inactive)
SK-MEL-5
  GI50: > 10 µM (inactive)
SF-295
  GI50: > 10 µM (inactive)
TK-10
  GI50: > 10 µM (inactive)
786-0
  GI50: > 10 µM (inactive)
SNB-75
  GI50: > 10 µM (inactive)
A549
  GI50: > 10 µM (inactive)
SK-MEL-28
  GI50: > 10 µM (inactive)
T47D
  GI50: > 10 µM (inactive)
NCI-H522
  GI50: > 10 µM (inactive)
SN12C
  GI50: > 10 µM (inactive)
PC-3
  GI50: > 10 µM (inactive)
MDA-MB-435
  GI50: > 10 µM (inactive)
M14
  GI50: > 10 µM (inactive)
U-251
  GI50: > 10 µM (inactive)
DU-145
  GI50: > 10 µM (inactive)
OVCAR-3
  GI50: > 10 µM (inactive)
HL-60
  GI50: > 10 µM (inactive)
SF-539
  GI50: > 10 µM (inactive)
MCF7
  GI50: > 10 µM (inactive)
OVCAR-5
  GI50: > 10 µM (inactive)
SNB-19
  GI50: > 10 µM (inactive)
UACC-257
  GI50: > 10 µM (inactive)
SF-268
  GI50: > 10 µM (inactive)
SK-MEL-2
  GI50: > 10 µM (inactive)
HT-29
  GI50: > 10 µM (inactive)
IGROV-1
  GI50: > 10 µM (inactive)
HCC 2998
  GI50: > 10 µM (inactive)
A498
  GI50: > 10 µM (inactive)
MDA-MB-231
  GI50: > 10 µM (inactive)
SR
  GI50: > 10 µM (inactive)
LOX IMVI
  GI50: > 10 µM (inactive)
EKVX
  GI50: > 10 µM (inactive)
NCI-H23
  GI50: > 10 µM (inactive)
HOP-62
  GI50: > 10 µM (inactive)
NCI-H226
  GI50: > 10 µM (inactive)
MDA-N
  GI50: > 10 µM (inactive)
UACC-62
  GI50: > 10 µM (inactive)
CAKI-1
  GI50: > 10 µM (inactive)
SW-620
  GI50: > 10 µM (inactive)
COLO 205
  GI50: > 10 µM (inactive)
NCI/ADR-RES
  GI50: > 10 µM (inactive)
OVCAR-4
  GI50: > 10 µM (inactive)
KM12
  GI50: > 10 µM (inactive)
Hs-578T
  GI50: > 10 µM (inactive)
HCT-15
  GI50: > 10 µM
RPMI-8226
  GI50: > 10 µM (inactive)
MOLT-4
  GI50: > 10 µM (inactive)
NCI-H460
  GI50: > 10 µM (inactive)
ACHN
  GI50: > 10 µM (inactive)
SK-OV-3
  GI50: > 10 µM (inactive)
BT-549
  GI50: > 10 µM (inactive)
HCT-116
  GI50: > 10 µM (inactive)
Malme-3M
  GI50: > 10 µM (inactive)
